Data as given in ChEMBL document CHEMBL6103656, “Discovery of BT-114143, a Novel and Potent Phosphoric Acid-Containing Small-Molecule Plasminogen Activation Inhibitor for Hyperfibrinolysis” (J Med Chem, 2025).
Activity calls are given as the source filed them. The rule behind the calls is not given here.

How the values were obtained:
Blood = test: Ratio of compound IC50 to TXA IC50 in anti-fibrinolytic activity in healthy human fresh blood by plasma clot lysis; assay type: functional
[1] = Half life in beagle dog at 1 mg/kg, iv measured upto 24 hrs by LC-MS/MS analysis; assay type: ADME, organism-based, Canis lupus familiaris; conditions: in vivo
[2] = Clearance in Sprague-Dawley rat at 1 mg/kg, iv measured upto 24 hrs by LC-MS/MS analysis; assay type: ADME, organism-based; conditions: in vivo
Rattus norvegicus [3] = test: Hemostatic effect in rt-PA enhanced Sprague-Dawley rat tail bleeding model assessed as reduction in tail bleeding time at 5 mg/kg infused into right jugular vein; assay type: functional, organism-based; conditions: route iv
[4] = AUC (0 to infinity) in Sprague-Dawley rat at 1 mg/kg, iv measured upto 24 hrs by LC-MS/MS analysis; assay type: ADME, organism-based; conditions: in vivo
[5] = Volume of distribution at steady state in Sprague-Dawley rat at 1 mg/kg, iv measured upto 24 hrs by LC-MS/MS analysis; assay type: ADME, organism-based; conditions: in vivo, read-out: Vdss
[6] = Volume of distribution at steady state in beagle dog at 1 mg/kg, iv measured upto 24 hrs by LC-MS/MS analysis; assay type: ADME, organism-based, Canis lupus familiaris; conditions: in vivo, read-out: Vdss
[7] = Clearance in beagle dog at 1 mg/kg, iv measured upto 24 hrs by LC-MS/MS analysis; assay type: ADME, organism-based, Canis lupus familiaris; conditions: in vivo
[8] = AUC (0 to infinity) in beagle dog at 1 mg/kg, iv measured upto 24 hrs by LC-MS/MS analysis; assay type: ADME, organism-based, Canis lupus familiaris; conditions: in vivo
Rattus norvegicus [9] = test: Hemostatic effect in rt-PA enhanced Sprague-Dawley rat tail bleeding model assessed as reduction in tail bleeding time at 40 mg/kg infused into right jugular vein; assay type: functional, organism-based; conditions: route iv
[10] = (§1) Inhibition of Plasminogen (unknown origin) binding to fibrin (unknown origin) interaction by surface plasmon resonance (SPR) analysis; parameters: species or system Homo sapiens
Homo sapiens = organism: Homo sapiens; test: as §1
[11] = biological target: Tissue-type plasminogen activator (Rattus norvegicus) (UniProt P19637); test: Inhibition of recombinant tissue plasminogen activator (rt-PA)-induced fibrinolysis in Sprague-Dawley rat fresh whole blood assessed as thrombus dissolution within 30 mins after reaching maximum amplitude (LY30) at > 3 uM by thromboelastography analysis; assay type: functional, tissue-based
Sequence of Tissue-type plasminogen activator (Rattus norvegicus) (P19637 whole entry): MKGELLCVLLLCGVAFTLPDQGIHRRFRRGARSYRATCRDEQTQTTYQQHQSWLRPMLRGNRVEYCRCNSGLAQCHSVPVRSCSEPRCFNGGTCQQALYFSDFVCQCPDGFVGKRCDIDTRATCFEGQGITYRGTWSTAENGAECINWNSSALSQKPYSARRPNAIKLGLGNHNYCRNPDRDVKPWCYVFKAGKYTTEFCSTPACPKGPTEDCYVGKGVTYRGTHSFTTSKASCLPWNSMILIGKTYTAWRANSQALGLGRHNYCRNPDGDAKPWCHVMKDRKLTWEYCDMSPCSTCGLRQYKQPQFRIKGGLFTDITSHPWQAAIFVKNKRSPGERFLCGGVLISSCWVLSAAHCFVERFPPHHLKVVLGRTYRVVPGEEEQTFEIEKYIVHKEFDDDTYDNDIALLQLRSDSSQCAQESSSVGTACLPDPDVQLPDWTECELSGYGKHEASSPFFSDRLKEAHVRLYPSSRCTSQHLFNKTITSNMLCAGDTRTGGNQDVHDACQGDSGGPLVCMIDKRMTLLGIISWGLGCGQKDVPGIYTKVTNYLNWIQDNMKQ

[12] = biological target: Tissue-type plasminogen activator (Homo sapiens) (UniProt P00750); test: Inhibition of recombinant human tissue plasminogen activator (rt-PA)-induced fibrinolysis in human fresh whole blood assessed as thrombus dissolution within 30 mins after reaching maximum amplitude (LY30) by thromboelastography analysis; assay type: functional, tissue-based
Sequence of Tissue-type plasminogen activator (Homo sapiens) (P00750 36-562 limits assumed): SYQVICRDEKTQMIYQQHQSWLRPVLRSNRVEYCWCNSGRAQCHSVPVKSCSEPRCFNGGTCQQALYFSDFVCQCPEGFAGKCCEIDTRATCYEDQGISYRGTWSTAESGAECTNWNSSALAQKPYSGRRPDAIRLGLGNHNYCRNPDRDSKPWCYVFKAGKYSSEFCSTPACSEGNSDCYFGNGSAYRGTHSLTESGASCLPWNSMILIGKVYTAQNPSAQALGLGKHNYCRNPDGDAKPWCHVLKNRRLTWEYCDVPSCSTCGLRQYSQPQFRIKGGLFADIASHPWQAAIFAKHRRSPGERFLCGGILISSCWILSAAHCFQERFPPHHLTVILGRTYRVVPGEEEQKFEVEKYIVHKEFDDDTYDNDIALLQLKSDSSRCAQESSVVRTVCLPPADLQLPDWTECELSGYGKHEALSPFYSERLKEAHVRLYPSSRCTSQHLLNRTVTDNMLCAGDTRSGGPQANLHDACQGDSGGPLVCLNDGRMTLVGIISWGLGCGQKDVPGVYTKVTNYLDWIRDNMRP

[13] = Half life in Sprague-Dawley rat at 1 mg/kg, iv measured upto 24 hrs by LC-MS/MS analysis; assay type: ADME, organism-based; conditions: in vivo

Structure (SMILES) | Ratio IC50 (Blood) | also measured
Cl.O=P(O)(O)c1ccc2c(n1)C(N1CC[S+]([O-])CC1)CNC2 (mixture of isomers) | 0.17 | 
CC(C)(C)C[C@H]1C[C@@H](c2cc(=O)[nH]o2)CCN1.Cl | 0.15 | 
Cl.c1cc2c(nc1-c1nnn[nH]1)CCNC2 | 0.9 | 
CC(C)C1Cc2nc(P(=O)(O)O)ccc2CN1.Cl (mixture of isomers) | 0.14 | 
Cl.O=C(O)c1nc2c(s1)CNCC2 | 0.94 | 
Cl.O=C(O)c1cc2c(cn1)CNCC2 | 4.33 | 
CCOP(=O)(O)c1ccc2c(n1)CCNC2.Cl | 0.29 | 
NC[C@H]1CC[C@H](C(=O)O)CC1 [TRANEXAMIC ACID] |  | half-life [1]: 5.34 h; clearance [2]: 5.78 mL/min/kg; Activity (Rattus norvegicus [3]): Active; AUC(0-inf) [4]: 2820 ng·h/mL; Vd [5]: 0.296 L/kg; Vd [6]: 0.587 L/kg; clearance [7]: 2.46 mL/min/kg; AUC(0-inf) [8]: 6680 ng·h/mL; Activity (Rattus norvegicus [9]): Active; IC50 [10]: 5.33 µM; IC90 (Homo sapiens): 78.7 µM; inhibition [11]: Active; IC90 [12]: 10.1 µM; half-life [13]: 1.28 h
CS(=O)(=O)NC(=O)c1ccc2c(n1)CCNC2.Cl | 2.06 | 
CC(=O)NS(=O)(=O)c1ccc2c(n1)CCNC2.Cl | >10 | 
Cl.O=P(O)(O)c1ccc2c(n1)C(N1CCOCC1)CNC2 (mixture of isomers) | 0.3 | 
Cl.O=C(O)c1cc2c(s1)CNCC2 | 1.36 | 
NCCCCCC(=O)O |  | Activity (Rattus norvegicus [3]): inactive
Cl.O=C(O)c1nc2c(s1)CCNC2 | >10 | 
Cl.O=P(O)(Cc1ccccc1)c1ccc2c(n1)CCNC2 | 1.29 | 
CCCC1Cc2nc(P(=O)(O)O)ccc2CN1.Cl (mixture of isomers) | 0.2 | 
CC(C)(C)CCC1Cc2nc(P(=O)(O)O)ccc2CN1.Cl (mixture of isomers) | 0.1 | 
CC(C)CC1Cc2nc(P(=O)(O)O)ccc2CN1.Cl (mixture of isomers) | 0.08 | 
Cl.O=c1[nH]c(-c2ccc3c(n2)CCNC3)no1 | 0.86 | 
